This assay relates to HIV. The assay is described as follows: MT4 assay, antiviral HIV activity. The assay is classed as cell-based. The following applies: MT-4 cells (HTLV-1 transformed), read-out at 96 hours with cell titer glo. The method, then: Antiviral HIV activity and cytotoxicity values for compounds of the invention from Table 1 were measured in parallel in the HTLV-1 transformed cell line MT-4 based on the method previously described (Hazen et al., 2007, In vitro antiviral activity of the novel, tyrosyl-based human immunodeficiency virus (HIV) type 1 protease inhibitor brecanavir (GW640385) in combination with other antiretrovirals and against a panel of protease inhibitor-resistant HIV (Hazen et al., “In vitro antiviral activity of the novel, tyrosyl-based human immunodeficiency virus (HIV) type 1 protease inhibitor brecanavir (GW640385) in combination with other antiretrovirals and against a panel of protease inhibitor-resistant HIV”, Antimicrob. Agents Chemother. 2007, 51: 3147-3154; and Pauwels et al., “Sensitive and rapid assay on MT-4 cells for the detection of antiviral compounds against the AIDS virus”, J. of Virological Methods 1987, 16: 171-185).
Luciferase activity was measured 96 hours later by adding a cell titer glo (Promega, Madison, Wis.). Percent inhibition of cell protection data was plotted relative to no compound control. Under the same condition, cytotoxicity of the compounds was determined using cell titer Glo™ (Promega, Madison, Wis.). IC50s were determined from a 10 point dose response curve using 3-4-fold serial dilution for each compound, which spans a concentration range >1000 fold.
These values are plotted against the molar compound concentrations using the standard four parameter logistic equation: y=((Vmax*x^n)/(K^n+x^n)+Y2
Y2=minimum γ n=slope factor
Vmax=maximum γ x=compound concentration [M]

Experimental findings from patent US10239840B2, “Benzoazepine derivatives” (ViiV HEALTHCARE UK LIMITED, priority 2015, dated 2019) are described below.

The structures appear in SMILES notation.

A word on the IC50: it is the concentration needed to halve the response being measured. Turning to `Cc1c(-c2c(C)c3c(c(C)c2[C@H](OC(C)(C)C)C(=O)O)CCN(Cc2cccc(F)c2)CC3)cc(F)c2c1CCCO2` (atropisomer, axis not shown; (M)) [Example 15, (S)-2-(tert-butoxy)-2-((M)-8-(8-fluoro-5-methylchroman-6-yl)-3-(3-fluorobenzyl)-6,9-dimethyl-2,3,4,5-tetrahydro-1H-benzo[d]azepin-7-yl)acetic Acid], the IC50 amounted to 0.077 µM.
To `COc1cc(C(=O)N2CCc3c(C)c(-c4cc(F)c5c(c4C)CCCO5)c([C@H](OC(C)(C)C)C(=O)O)c(C)c3CC2)ccc1F` (atropisomer, axis not shown; (M)) [Example 13, (S)-2-(tert-butoxy)-2-((M)-3-(4-fluoro-3-methoxybenzoyl)-8-(8-fluoro-5-methylchroman-6-yl)-6,9-dimethyl-2,3,4,5-tetrahydro-1H-benzo[d]azepin-7-yl)acetic Acid] belongs 0.004 µM.
